Assay results from PMC8497791 (Frontiers in Pharmacology, 2021).
Each block holds one compound with its values, some of them ahead of it.

Tests used:
[1] = system: EGFR-mutated NSCLC brain metastases; set-up: method as in Liu et al., 2020; conditions: patients, ref Liu et al., 2020; cited from earlier work
BCRP = biological target: T1, BCRP (Homo sapiens, UniProt Q9UNQ0); experiment: Bidirectional transport across BCRP-MDCK monolayers; type: in vitro ADME; conditions: for BCRP transporter substrate assessment: criterion ER >2, BCRP-MDCK vs MDCK
T1 construct: expressed in transfected cells; host or cells: MDCK (canine kidney) cells transduced with lentivirus from pLVX-CMV-BCRP
T1 sequence (Q9UNQ0 1-655): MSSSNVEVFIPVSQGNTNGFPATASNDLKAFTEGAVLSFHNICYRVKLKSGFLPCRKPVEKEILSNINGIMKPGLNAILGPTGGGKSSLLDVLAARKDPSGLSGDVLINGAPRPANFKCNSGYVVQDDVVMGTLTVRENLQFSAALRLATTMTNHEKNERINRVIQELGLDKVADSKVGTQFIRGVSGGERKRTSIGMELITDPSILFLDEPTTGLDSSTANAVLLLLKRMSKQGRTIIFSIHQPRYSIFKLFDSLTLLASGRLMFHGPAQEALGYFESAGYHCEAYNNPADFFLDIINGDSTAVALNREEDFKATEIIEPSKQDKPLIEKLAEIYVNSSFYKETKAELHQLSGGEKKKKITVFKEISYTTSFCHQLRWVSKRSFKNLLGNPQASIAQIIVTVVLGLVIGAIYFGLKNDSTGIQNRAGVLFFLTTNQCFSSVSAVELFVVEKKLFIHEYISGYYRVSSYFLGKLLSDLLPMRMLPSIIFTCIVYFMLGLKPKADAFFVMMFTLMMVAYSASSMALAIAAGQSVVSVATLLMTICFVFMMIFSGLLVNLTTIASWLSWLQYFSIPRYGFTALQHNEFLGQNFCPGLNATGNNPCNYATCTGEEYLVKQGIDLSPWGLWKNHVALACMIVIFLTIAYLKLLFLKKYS
Procedure: (§1) To establish an MDCK transgenic cell line that can stably express human ABCB1 and BCRP and to identify whether it is suitable for drug delivery experiments, lentivirus shuttle plasmids pLVX-CMV-ABCB1 and pLVX-CMV-BCRP and their auxiliary packaging plasmids PSPAX2 and PMD2G, were extracted with high purity and free of endotoxin, respectively. 293T cells were transfected with Lipofectamine™ 3000 transfection reagent, and the medium was changed 6 h after transfection. After culturing for 24 and 48 h, the cell supernatants, rich in lentivirus particles, were collected and concentrated by ultracentrifugation. Before lentivirus transfection for 18–24 h, adherent MDCK cells were spread on 24-well plates at a density of 1 × 10^5/well. The number of cells transfected with lentivirus was approximately 2 × 10^5/well. The next day, the original medium was replaced with 2 ml of fresh medium containing 6 μg/ml polybrene, and then an appropriate amount of virus suspension; the plates were incubated at 37°C. After 4 h, 2 ml of fresh medium was added to dilute polybrene. The cells were cultured for another 24 h, and the medium containing virus was replaced with fresh medium. After 3–4 days of transfection, puromycin was added to screen the cell lines stably expressing ABCB1 and BCRP.
(§2) MDCK, ABCB1-MDCK, and BCRP-MDCK cells were inoculated in Tmur75 culture bottles with high-glucose DMEM. The cells were counted using a cell counter, the cell density was adjusted to 2.0 × 10^5 cells/ml, and the cells were inoculated in 12-well transwell plates [1.13 cm^2 insert area, 0.4 µm pore size (Corning Life Sciences, New York, NY, United States)]. Thereafter, 0.5 ml of cell suspension was added to the villous surface of each hole (AP side) and 1.5 ml of blank culture medium was added to the basal surface (BL side). After 24 h of culture in the incubator, the fresh culture medium was changed on both AP and BL sides, and the medium was changed every day for 3–5 days. In this experiment, transmembrane resistance was used to evaluate the compactness and integrity of the cell model. When the transmembrane resistance (TEER) is greater than 300 Ω cm^2, the cell monolayer is considered dense and intact. The higher the TEER value, the tighter the monolayer connection. The TEER of monolayer cells was calculated using the following formula: TEER = (R - Rb) × A; where, R is the resistance of the well inoculated with cells, Rb is the blank well without cell inoculation, and A is the membrane area of the polycarbonate membrane.
(§3) Before the transport experiment, the cell monolayer was washed with blank HBSS solution at 37°C three times, and then placed in a CO2 incubator and balanced with HBSS solution for 30 min at 37°C. The transport of the AP→BL side: 0.5 ml of the test solution was added to the AP side as the supply pool, whereas 1.5 ml of blank HBSS solution was added to the BL side as the receiving pool. Before sampling, 0.1 ml of the sample was collected from the BL side in the centrifuge tube, and after sampling, 0.1 ml of blank HBSS, transport sample, was added to the BL side to precipitate protein with methanol, and used for liquid chromatography-tandem mass spectrometry (LC-MS) detection. The transport of the BL→AP side: 1.5 ml of the test solution was added to the BL side as the supply pool, whereas 0.5 ml of blank HBSS solution was added to the AP side as the receiving pool. First, 0.1 ml of the sample was collected on the AP side in the centrifuge tube, and then 0.1 ml of HBSS was added to the AP side after sampling. A transport sample was added to the AP side to precipitate the protein with methanol and used for LC-MS detection.
(§4) The protein was precipitated with methanol in 0.1 ml of blank HBSS, transport sample, and used for LC-MS detection. Drug absorption was determined by LC-MS/MS.

[2] = system: EGFR 19del mutant lung adenocarcinoma and brain metastases; experiment: Clinical case study, EGFR 19del lung adenocarcinoma with brain metastases; type: in vivo, human; conditions: one patient
Procedure: Herein, we present details of a clinical case study. In this case, brain metastases were recorded at the beginning of the study, and almonertinib was administered for several weeks to allow magnetic resonance imaging of the brain to observe the progression of the disease. Written informed consent was obtained from the patient. The work has been carried out in accordance with The Code of Ethics of the World Medical Association (Declaration of Helsinki).

[3] = Bidirectional transport across MDCK monolayers; type: in vitro ADME, canine; conditions: dog, read-out: efflux ratio (ER)
Procedure: as §2, §3, §4

[4] = Mouse pharmacokinetic study, plasma and brain by LC-MS
[5] = system: PC9-LUC spinal cord metastases; experiment: Mouse spinal cord metastasis model (PC9-LUC); type: in vivo, nude mice; conditions: for biofluorescence signal of intracranial and spinal cord tumors: vs control
[6] = biological target: EGFR T790M mutant protein (Homo sapiens, UniProt P00533, T790M); experiment: biochemical
ABCB1 = biological target: T2, ABCB1 (Homo sapiens, UniProt P08183); experiment: Bidirectional transport across ABCB1-MDCK monolayers; type: in vitro ADME; conditions: for ABCB1 transporter substrate assessment: criterion ER >2, ABCB1-MDCK vs MDCK
T2 construct: expressed in transfected cells; host or cells: MDCK (canine kidney) cells transduced with lentivirus from pLVX-CMV-ABCB1
Procedure: as §1, §2, §3, §4

[7] = system: PC9-LUC brain metastatic tumor; experiment: Mouse brain metastasis xenograft (intracranial PC9-LUC); type: in vivo, BALB/c nude mice; conditions: for growth of intracranial tumors (bioluminescence) / body weight of mice: 10 and 25 mg/kg once daily
[8] = set-up: method as in Mok et al., 2017; conditions: metabolite of osimertinib; ref Mok et al., 2017; cited from earlier work
[9] = mouse, in vivo, po, 25 mg/kg
MDCK cell monolayers = experiment: Bidirectional transport across MDCK monolayers; type: in vitro ADME, canine
Procedure: as §2, §3, §4

[10] = set-up: method as in Mok et al., 2017; conditions: AURA3; ref Mok et al., 2017; cited from earlier work
[11] = female, BALB/c nude, mouse, brain, po, 25 mg/kg
[12] = female, BALB/c nude, mouse, plasma, po, 25 mg/kg
[13] = brain metastasis model, 25 mg/kg once daily

T2 sequence (P08183 whole entry): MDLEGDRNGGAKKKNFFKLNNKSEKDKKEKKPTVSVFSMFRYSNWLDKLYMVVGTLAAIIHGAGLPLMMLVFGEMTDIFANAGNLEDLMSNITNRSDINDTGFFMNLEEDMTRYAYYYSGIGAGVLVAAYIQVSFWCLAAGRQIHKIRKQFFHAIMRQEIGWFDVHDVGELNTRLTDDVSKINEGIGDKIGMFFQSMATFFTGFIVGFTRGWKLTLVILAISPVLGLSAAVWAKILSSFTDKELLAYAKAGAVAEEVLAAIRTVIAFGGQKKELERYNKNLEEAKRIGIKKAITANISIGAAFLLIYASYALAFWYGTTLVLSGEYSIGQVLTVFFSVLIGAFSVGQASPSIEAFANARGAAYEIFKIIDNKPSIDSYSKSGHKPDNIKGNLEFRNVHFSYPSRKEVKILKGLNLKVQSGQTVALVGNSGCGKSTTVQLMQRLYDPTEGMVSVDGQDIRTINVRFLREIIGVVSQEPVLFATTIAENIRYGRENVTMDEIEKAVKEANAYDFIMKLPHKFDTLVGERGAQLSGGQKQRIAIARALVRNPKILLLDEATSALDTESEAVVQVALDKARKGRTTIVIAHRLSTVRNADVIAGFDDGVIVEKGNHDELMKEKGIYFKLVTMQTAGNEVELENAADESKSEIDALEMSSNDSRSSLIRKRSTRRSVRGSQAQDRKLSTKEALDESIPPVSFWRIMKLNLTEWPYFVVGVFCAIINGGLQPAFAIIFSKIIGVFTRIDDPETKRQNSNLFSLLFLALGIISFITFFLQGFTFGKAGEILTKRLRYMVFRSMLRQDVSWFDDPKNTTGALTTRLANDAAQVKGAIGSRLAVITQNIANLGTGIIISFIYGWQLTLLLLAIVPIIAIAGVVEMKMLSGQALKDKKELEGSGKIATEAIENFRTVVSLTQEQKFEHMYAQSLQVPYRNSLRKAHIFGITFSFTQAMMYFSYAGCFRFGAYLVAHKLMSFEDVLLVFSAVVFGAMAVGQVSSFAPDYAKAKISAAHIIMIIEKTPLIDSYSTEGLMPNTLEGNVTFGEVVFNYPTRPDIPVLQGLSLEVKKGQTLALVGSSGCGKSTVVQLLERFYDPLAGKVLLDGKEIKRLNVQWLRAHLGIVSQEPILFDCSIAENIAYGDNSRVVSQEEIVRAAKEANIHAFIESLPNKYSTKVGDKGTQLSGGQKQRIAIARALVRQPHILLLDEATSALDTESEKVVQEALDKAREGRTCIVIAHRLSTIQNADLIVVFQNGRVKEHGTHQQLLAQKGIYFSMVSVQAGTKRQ
Sequence of EGFR T790M mutant protein (P00533 25-1210 T790M): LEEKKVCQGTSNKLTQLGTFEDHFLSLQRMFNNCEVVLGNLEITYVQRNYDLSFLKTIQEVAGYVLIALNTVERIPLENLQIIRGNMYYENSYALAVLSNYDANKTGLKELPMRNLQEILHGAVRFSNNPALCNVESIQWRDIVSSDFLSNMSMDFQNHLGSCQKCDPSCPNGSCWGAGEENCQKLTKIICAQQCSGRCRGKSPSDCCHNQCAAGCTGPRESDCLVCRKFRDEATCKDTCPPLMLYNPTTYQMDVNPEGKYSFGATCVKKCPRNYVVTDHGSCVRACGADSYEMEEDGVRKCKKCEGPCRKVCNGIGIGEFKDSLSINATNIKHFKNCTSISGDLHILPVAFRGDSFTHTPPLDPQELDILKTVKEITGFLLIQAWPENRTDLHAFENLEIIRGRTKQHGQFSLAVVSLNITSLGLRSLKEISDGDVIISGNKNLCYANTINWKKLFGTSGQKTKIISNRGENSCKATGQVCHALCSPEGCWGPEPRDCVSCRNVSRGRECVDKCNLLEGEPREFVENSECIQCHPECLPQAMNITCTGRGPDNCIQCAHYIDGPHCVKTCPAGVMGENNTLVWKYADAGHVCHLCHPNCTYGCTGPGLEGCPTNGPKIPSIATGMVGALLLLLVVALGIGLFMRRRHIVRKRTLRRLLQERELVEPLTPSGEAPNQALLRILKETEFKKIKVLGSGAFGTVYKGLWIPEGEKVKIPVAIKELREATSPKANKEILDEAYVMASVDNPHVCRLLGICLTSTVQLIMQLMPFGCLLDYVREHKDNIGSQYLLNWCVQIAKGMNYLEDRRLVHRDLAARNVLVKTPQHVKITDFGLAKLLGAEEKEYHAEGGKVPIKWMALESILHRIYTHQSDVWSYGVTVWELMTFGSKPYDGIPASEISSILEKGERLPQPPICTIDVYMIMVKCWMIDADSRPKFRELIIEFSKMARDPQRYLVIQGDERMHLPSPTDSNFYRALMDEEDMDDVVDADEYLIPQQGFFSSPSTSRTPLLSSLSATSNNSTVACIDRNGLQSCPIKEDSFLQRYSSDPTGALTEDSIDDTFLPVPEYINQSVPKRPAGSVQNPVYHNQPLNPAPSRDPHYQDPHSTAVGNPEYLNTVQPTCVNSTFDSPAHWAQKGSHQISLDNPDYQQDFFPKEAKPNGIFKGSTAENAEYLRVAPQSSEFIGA

Compound: C#Cc1cccc(Nc2ncnc3cc4c(cc23)OCCOCCOCCO4)c1 [icotinib]
median intracranial progression free survival (PFS) [1]: 8.4 months

Compound: C=CC(=O)Nc1cc(Nc2nccc(-c3cn(C4CC4)c4ccccc34)n2)c(OC)cc1N(C)CCN(C)C [almonertinib]
BCRP transporter substrate assessment (BCRP): ABCB1 and BCRP transporter substrates
efflux ratio at 1 μM (BCRP; human, BCRP-MDCK, 1 μM, read-out: efflux ratio (ER)): 4.62
efflux ratio at 10 μM (BCRP; human, BCRP-MDCK, 10 μM, read-out: efflux ratio (ER)): 2.51
efflux ratio at 20 μM (BCRP; human, BCRP-MDCK, 20 μM, read-out: efflux ratio (ER)): 1.53
intracranial tumor response ([2]; 110 mg po qd first-line, after 8 weeks): partially responded
abnormalities during treatment ([2]; 110 mg po qd): no other abnormalities
efflux ratio at 1 μM ([3]; 1 μM): 1.1
efflux ratio at 10 μM ([3]; 10 μM): 1.42
efflux ratio at 20 μM ([3]; 20 μM): 1.02
detectability in plasma and brain tissue ([4]; 24 h after 25 mg/kg oral): could still be detected
BBB penetration ([4]; PC9-LUC BM xenograft mice, almonertinib 25 mg/kg oral): excellent BBB penetration
tmax ([4]; brain, almonertinib 25 mg/kg oral): 2 h
AUC(0-t) [4, 11]: 30.6 µM·h
Cmax [4, 11]: 5.36 µM
MRT last [4, 11]: 6.19 h
Kp ([4]; female, BALB/c nude, mouse, brain/plasma, po, 25 mg/kg): 1.82
AUC(0-t) [4, 12]: 16.9 µM·h
Cmax [4, 12]: 6.41 µM
MRT last [4, 12]: 5.42 h
tmax ([4]; female, BALB/c nude, mouse, plasma, po, 25 mg/kg, tmax, almonertinib 25 mg/kg oral): 0.5 h
tumor growth / regression ([5]; 5 mg/kg, spinal cord metastatic mice): can inhibit tumor growth but cannot cause tumor regression
biofluorescence signal of intracranial and spinal cord tumors ([5]; high-dose group (25 mg/kg Qd)): significantly reduced
proliferation of tumor cells (H&E and Ki-67 staining of spinal cord) ([5]; high-dose group (25 mg/kg)): significant inhibition in the proliferation of tumor cells
biofluorescence signal of intracranial and spinal cord tumors ([5]; low-dose group (5 mg/kg Qd)): did not change significantly
survival time ([5]; spinal cord metastasis model, vs osimertinib-administered group): longer survival time
Kd [6]: 11.1 µM
ABCB1 transporter substrate assessment (ABCB1): ABCB1 and BCRP transporter substrates
efflux ratio at 1 μM (ABCB1; human, MDCK-MDR1, ABCB1-MDCK, 1 μM, read-out: efflux ratio (ER)): 5.2
efflux ratio at 10 μM (ABCB1; human, MDCK-MDR1, ABCB1-MDCK, 10 μM, read-out: efflux ratio (ER)): 2.75
efflux ratio at 20 μM (ABCB1; human, MDCK-MDR1, ABCB1-MDCK, 20 μM, read-out: efflux ratio (ER)): 1.84
neurological function (sticky dot test, vertical test) ([7]; 25 mg/kg, vs control group): significant improvement in neurological function
growth of intracranial tumors (bioluminescence) [7]: effectively inhibited the growth of intracranial tumors
number of proliferative cells (Ki-67, histological analysis of brain tissue) ([7]; brain metastasis model): significantly decreased
body weight of mice ([7]; brain metastasis model): decreased after administration
overall survival time of mice ([7]; brain metastasis model, 10 and 25 mg/kg, 60 days): longer than that of mice in the osimertinib group

Compound: C=CC(=O)Nc1cc(Nc2nccc(-c3c[nH]c4ccccc34)n2)c(OC)cc1N(C)CCN(C)C [AZ5104]
concentration of active metabolite in the human body [8]: ~10%

Compound: C=CC(=O)Nc1cc(Nc2nccc(-c3cn(C4CC4)c4ccccc34)n2)c(OC)cc1N(C)CCNC [HAS-719]
efflux ratio (ER) (BCRP; BCRP-MDCK, 1 μM): 11.59
efflux ratio (ER) (BCRP; BCRP-MDCK, 10 μM): 5.07
efflux ratio (ER) (BCRP; BCRP-MDCK, 20 μM): 2.49
BCRP transporter substrate assessment (BCRP): ABCB1 and BCRP transporter substrates
Tissue/plasma AUC ratio [9]: 0.21
efflux ratio (ER) (MDCK cell monolayers; 1 μM): 2.81
efflux ratio (ER) (MDCK cell monolayers; 10 μM): 1.61
efflux ratio (ER) (MDCK cell monolayers; 20 μM): 1.62
efflux ratio (ER) (ABCB1; ABCB1-MDCK, 1 μM): 29.83
efflux ratio (ER) (ABCB1; ABCB1-MDCK, 10 μM): 12.26
efflux ratio (ER) (ABCB1; ABCB1-MDCK, 20 μM): 5.5
ABCB1 transporter substrate assessment (ABCB1): ABCB1 and BCRP transporter substrates

skin of mice [7, 13]: appeared to be keratinized
weight loss [7, 13]: more obvious
Compound: C=CC(=O)Nc1cc(Nc2nccc(-c3cn(C)c4ccccc34)n2)c(OC)cc1N(C)CCN(C)C [osimertinib]
grade 1 and 2 diarrhea, patients affected [10]: 41%
grade 1 and 2 rashes, patients affected [10]: 34%
biofluorescence signal of intracranial and spinal cord tumors ([5]; high-dose group (25 mg/kg Qd)): significantly reduced
biofluorescence signal of intracranial and spinal cord tumors ([5]; low-dose group (5 mg/kg Qd)): did not change significantly
growth of intracranial tumors (bioluminescence) [7]: effectively inhibited the growth of intracranial tumors
body weight of mice ([7]; brain metastasis model): decreased after administration
